Test results: PubChem BioAssay (NCI)
“And” between values parts separate entries of the source, which are not always exact repeats. Identical values can stand only once.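 Protocol summary: plate cells (96-well), add compound at 5 concentrations, incubate 48 h, interpolate endpoints linearly. The concentration for 50% growth inhibition is given as GI50. TGI: concentration producing complete growth inhibition.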

Key:
Experiment in all cases: inhibition of tumour cell growth, NCI panel, 48 h
NCI-H23 lung = tested on: NCI-H23 lung
KM12 colon = tested on: KM12 colon
SF-295 CNS = tested on: SF-295 CNS
T-47D breast = tested on: T-47D breast
NCI/ADR-RES ovarian = tested on: NCI/ADR-RES ovarian
HOP-62 NSCLC = tested on: HOP-62 NSCLC
SN12C renal = tested on: SN12C renal

| SMILES | TGI (NCI-H23 lung) | TGI (KM12 colon) [µM] | TGI (SF-295 CNS) | TGI (T-47D breast) [µM] | TGI (NCI/ADR-RES ovarian) [µM] | TGI (HOP-62 NSCLC) | TGI (SN12C renal) [µM] | GI50 (NCI-H23 lung) | GI50 (KM12 colon) | GI50 (SF-295 CNS) | GI50 (T-47D breast) [µM] | GI50 (NCI/ADR-RES ovarian) | GI50 (HOP-62 NSCLC) [µM] | GI50 (SN12C renal) [µM] |
| --- | --- | --- | --- | --- | --- | --- | --- | --- | --- | --- | --- | --- | --- | --- |
| Cc1cc(=O)oc2c(C)c(O)ccc12 | > 100 µM | > 100 | > 100 µM | > 100 | > 100 | > 100 µM | > 100 | – | – | – | – | – | – | – |
| COc1cc2ncn(-c3cc(O[C@@H](C)c4ccccc4Cl)c(C(N)=O)s3)c2cc1OC | > 25 µM | > 25 | > 25 µM | 7.09 | > 25 | > 25 µM | > 25 | 1.57 µM | 0.559 µM | 1.25 µM | 1.8 | 0.429 µM | 0.744 | 3.05 |
| C[C@@H](O)[C@H](NC(=O)N[C@@H](CC(N)=O)c1nc([C@@H](N)CO)no1)C(=O)O | > 100 µM | > 100 | > 100 µM | > 100 | > 100 | > 100 µM | > 100 | > 100 µM | > 100 µM | > 100 µM | > 100 | > 100 µM | > 100 | > 100 |
| CCN(Cc1ccccc1)c1ccc(CO)c(Cl)c1 | > 86 µM | 63.3 | > 56 µM | 2.25 | 56.8 | 79.5 µM | > 100 | 9.44 µM | 20.5 µM | 1 µM | 0.278 | 14.4 µM | 0.963 | 19.8 |
| CCC(=O)Nc1ccccc1C#C/C=C\C#Cc1ccccc1SC | > 100 µM | > 100 | – | > 100 | 65.2 | > 100 µM | > 100 | 22.7 µM | 5.27 µM | – | 8.96 | 5.15 µM | 10 | 26.7 |
| CC(=Nc1ccccc1)C1=C(O)C(Cc2ccc(O)cc2)NC1=O (configuration not stated) | > 100 µM | 1.31 | – | – | 0.793 | 2.46 µM | > 100 | 0.139 µM | 0.0472 µM | – | – | 0.0572 µM | 0.106 | 0.991 |
| O=c1ccs[nH]1 | 43.7 µM | 62.1 | 54.2 µM | 55.5 | 50.5 | 38.6 µM | 28.3 | – | – | – | – | – | – | – |
| COc1cc(Nc2nc3ccccc3nc2NS(=O)(=O)c2ccc(NC(=O)c3ccc(C)c(OC)c3)cc2)cc(OC)c1 | 17.3 µM and 58.9 µM and > 10 µM | > 100 | 9.85 µM and 33.6 µM and > 5.22 µM | – | > 100 | 25.9 µM and > 100 µM and > 9.23 µM | > 100 | 2.27 µM and 12.5 µM and 1.33 µM | 3.62 µM and 20 µM and 2.35 µM | 2.03 µM and 8.73 µM and 1.08 µM | – | 4.36 µM and 17.7 µM and > 3.64 µM | – | – |
| c1cc(N2CCCN(c3ccc(C4=NCCCN4)cc3)CC2)ccc1C1=NCCCN1 | > 100 µM | > 100 | > 100 µM | > 100 | > 100 | > 100 µM | – | > 100 µM | > 100 µM | 51.1 µM | > 100 | > 100 µM | > 100 | – |
| Cc1cc(-c2nc3sccn3c2/C=N/N=C(N)N)c(C)s1 | 33.7 µM | 26.1 | 26.3 µM | 32.8 | 31.6 | 32.1 µM | 30.9 | 17.7 µM | 13.3 µM | 13.5 µM | 17.5 | 17.4 µM | 17.4 | 15.7 |
| NC[C@H]1Nc2ccccc2[C@@H](O)C1O (some centres not stated) | > 100 µM | > 100 | > 100 µM | > 100 | > 100 | > 100 µM | > 100 | – | – | – | – | – | – | – |
| COC(=O)CC[C@]1(C)O[C@H]2[C@H]([C@@H](C)CCCC(C)=O)OC(=O)[C@@H]2C[C@H]1O | > 100 µM | > 100 | > 100 µM | – | > 100 | – | > 100 | 67.8 µM | > 100 µM | > 100 µM | – | > 100 µM | – | > 100 |
| CC1=C(C(=O)Nc2ccc(Cl)c(Cl)c2)C(c2cccc(Cl)c2)NC(=O)N1 (configuration not stated) | 28.5 µM | 2.48 | 5.12 µM | > 50 | 33.5 | 20.5 µM | 16.8 | 12.7 µM | 0.239 µM | 1.04 µM | 19.2 | 13.3 µM | 10.4 | 8.53 |
| COc1ccc(-c2cc(-c3ccc(Cl)cc3)nc(SCCCC(=O)NO)n2)cc1 | 7.06 µM | 4.12 | 2.23 µM | 7.46 | 1.28 | 6.66 µM | > 20.5 | 1.43 µM | 1.44 µM | 0.537 µM | 0.801 | 0.314 µM | 0.902 | 0.654 |
| O=C1NC(=O)C(c2ccccc2Cl)=C1Nc1cc(Cl)c(O)c(Cl)c1 | – | > 25 | > 25 µM | > 25 | > 25 | > 25 µM | > 25 | – | 12 µM | > 25 µM | > 15.2 | 14.9 µM | 14.5 | > 21.5 |
| O=C1O/C(=C\c2ccccc2)N(c2ccccc2)C1=O | > 100 µM | > 100 | – | > 100 | > 100 | > 100 µM | > 100 | – | – | – | – | – | – | – |
| N#CC1=C(N)Oc2c(ccc3ccccc23)C1c1ccccc1 (configuration not stated) | 16.9 µM | 13.5 | 11.6 µM | – | 1.68 | 18.6 µM | 13.7 | 0.0648 µM | 0.0419 µM | 0.0299 µM | – | 0.0274 µM | 0.0555 | 0.0793 |
| COc1cc(-c2ccc(-c3ccc(C(=N)N)nc3)s2)cc(OC)c1OC | 22.6 µM | 10.5 | – | – | 24.1 | 11.5 µM | 4.71 | 6.4 µM | 2.78 µM | – | – | 5.2 µM | 2.79 | 2.05 |
| CNC/C(Cl)=N/S(=O)(=O)c1ccc(C)cc1 | 26.2 µM | 27.7 | 32.4 µM | – | > 100 | 29.9 µM | 28.1 | – | – | – | – | – | – | – |
| O=C(O)c1ccc(Oc2nccc(-c3c(-c4ccc(F)cc4)ncn3C3CCNCC3)n2)cc1 | – | > 25 | > 25 µM | > 25 | > 25 | > 25 µM | > 25 | – | > 25 µM | > 25 µM | > 25 | > 25 µM | > 25 | > 25 |
